Patent publication US20100298141A1, “SUBSTITUTED PYRIDINE N-OXIDE HERBICIDES” (E. I. DU PONT DE NEMOURS AND COMPANY, priority 2007, published 2010)

Legend:
cotton = experiment: Test G preemergence test; type: in vivo, Gossypium hirsutum; settings: scale 0 to 100
yellow nutsedge = experiment: Test G preemergence test; type: in vivo, Cyperus esculentus; settings: scale 0 to 100
windgrass = experiment: Test C pre-/postemergence test; type: in vivo, Apera spica-venti; settings: Postemergence; for Plant response rating, Windgrass: scale 0 to 100, 0 no effect, 100 complete control
Russian thistle = experiment: Test F preemergence test; type: in vivo, Salsola kali; settings: scale 0 to 100; for Russian Thistle plant response rating: 62 g ai/ha
From the text: Seeds of plant species selected from bermudagrass (Cynodon dactylon), Surinam grass (Brachiaria decumbens), large crabgrass (Digitaria sanguinalis), green foxtail (Setaria viridis), goosegrass (Eleusine indica), johnsongrass (Sorghum halepense), kochia (Kochia scoparia), pitted morningglory (Ipomoea lacunosa), purple nutsedge (Cyperus rotundus), common ragweed (Ambrosia elation), mustard (Brassica nigra), guineagrass (Panicum maximum), […] (Paspalum dilatatum), barnyardgrass (Echinochloa crus-galli), southern sandbur (Cenchrus echinatus), common sowthistle (Sonchus oleraceous), prickly […] spinosa), Italian ryegrass (Lolium multiflorum), common purslane (Portulaca oleracea), broadleaf signalgrass (Brachiaria platyphylla), common groundsel (Senecio vulgaris), common chickweed (Stellaria media), Virginia dayflower (Commelina virginica), annual bluegrass (Poa annua), naked crabgrass (Digitaria nuda), […] cochinchinensis), quackgrass (Elytrigia repens), Canada horseweed (Conyza canadensis), field bindweed (Convolvulus arvensis), […] (Bidens bipinnata), common mallow (Malva sylvestris), Russian thistle (Salsola kali), and sugarcane (Saccharum officinarum) were planted and treated preemergence with test chemicals formulated in a non-phytotoxic solvent mixture which included a surfactant. At a different time, sugarcane was treated with postemergence applications of some of the test chemicals formulated in the same manner. Plants were approximately 3- to 4-leaf stage for the postemergence treatments. Treated plants and controls were maintained in a greenhouse for 14 to 21 days, after which time all species were compared to controls and visually evaluated. […] A dash (-) response means no test result.

chickweed = experiment: Test C postemergence test; type: in vivo, Stellaria media; settings: for Plant response rating, Chickweed: scale 0 to 100, 0 no effect, 100 complete control
Outline: (§1)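 Postemergence sprays of formulated test chemicals on plants 2 to 18 cm tall (1- to 4-leaf stage). Greenhouse hold for 13 to 15 days, then visual rating of each species against untreated controls; dash means no test result.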

millet foxtail = experiment: Test G preemergence test; type: in vivo, Setaria italica; settings: scale 0 to 100
common sowthistle = experiment: Test F preemergence test; type: in vivo, Sonchus oleraceous; settings: scale 0 to 100
Outline: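 Visual ratings relative to controls, taken after 14 to 21 days in a greenhouse. Test chemicals, formulated in a surfactant-containing non-phytotoxic solvent mixture, were applied preemergence to sown seeds or postemergence to sugarcane plants.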

littleseed canarygrass = experiment: Test D preemergence test; type: in vivo, Phalaris minor; settings: scale 0 to 100
From the text: (§2) Seeds of plant species selected from annual bluegrass (Poa annua), blackgrass (Alopecurus myosuroides), downy bromegrass (Bromus tectorum), field violet (Viola arvensis), green foxtail (Setaria viridis), Italian ryegrass (Lolium multiflorum), littleseed canarygrass (Phalaris minor), spring wheat (Triticum aestivum), wild oat (Avena fatua), […]), winter barley (Hordeum vulgare), and winter wheat (Triticum aestivum) were planted and treated preemergence with test chemicals formulated in a non-phytotoxic solvent mixture which included a surfactant. […] A dash (-) response means no test result.

winter barley [1] = experiment: Test C postemergence test; type: in vivo, Hordeum vulgare; settings: for Plant response rating, Barley: scale 0 to 100, 0 no effect, 100 complete control
Outline: as §1

field sandbur = experiment: Test G preemergence test; type: in vivo, Cenchrus incertus; settings: scale 0 to 100
canarygrass = experiment: Test C postemergence test; type: in vivo, Phalaris minor; settings: for Plant response rating, Canarygrass: scale 0 to 100, 0 no effect, 100 complete control
Outline: as §1

winter barley [2] = experiment: Test D preemergence test; type: in vivo, Hordeum vulgare
From the text: as §2

[3] = Preemergence, 62 g ai/ha, scale 0 to 100
[4] = Preemergence, 125 g ai/ha, scale 0 to 100
[5] = Preemergence, 31 g ai/ha, scale 0 to 100
[6] = preemergence, 250 g ai/ha, scale 0 (no effect) to 100 (complete control)

Cn1nc(C(F)(F)F)c(C[S+]([O-])c2cccc[n+]2[O-])c1OC(F)F (stereo not shown) [Compound 3]
Plant response rating, Cotton (cotton; 31 g ai/ha): 0
Plant response rating, Cotton (cotton; 62 g ai/ha): 0
Plant response rating, Cotton (cotton; 125 g ai/ha): 10
Plant response rating, Cotton (cotton; 250 g ai/ha): 25
Plant response rating, Nutsedge, Yellow (yellow nutsedge; 31 g ai/ha): 0
Plant response rating, Nutsedge, Yellow (yellow nutsedge; 62 g ai/ha): 15
Plant response rating, Nutsedge, Yellow (yellow nutsedge; 125 g ai/ha): 65
Plant response rating, Nutsedge, Yellow (yellow nutsedge; 250 g ai/ha): 65
Plant response rating (0 to 100), Windgrass (windgrass; 31 g ai/ha): 0
Plant response rating (0 to 100), Windgrass (windgrass; 62 g ai/ha): 0
Plant response rating, Windgrass (windgrass; 125 g ai/ha): 20
Plant response rating, Windgrass (windgrass; 250 g ai/ha): 70
Plant response rating, Russian Thistle (Russian thistle; 8 g ai/ha, preemergence): 0
Russian Thistle plant response rating (Russian thistle; Preemergence): 100
Plant response rating, Russian Thistle (Russian thistle; Preemergence, 16 g ai/ha): 0
Plant response rating, Russian Thistle (Russian thistle; Preemergence, 31 g ai/ha): 35
Plant response rating (0 to 100), Chickweed (chickweed; 31 g ai/ha): 10
Plant response rating, Chickweed (chickweed; 62 g ai/ha): 70
Plant response rating, Chickweed (chickweed; 125 g ai/ha): 85
Plant response rating, Chickweed (chickweed; 250 g ai/ha): 95
Plant response rating, Foxtail, Millet (millet foxtail; 31 g ai/ha): 0
Plant response rating, Foxtail, Millet (millet foxtail; 62 g ai/ha): 80
Plant response rating, Foxtail, Millet (millet foxtail; 125 g ai/ha): 100
Plant response rating, Foxtail, Millet (millet foxtail; 250 g ai/ha): 100
Plant response rating, Sowthistle (common sowthistle; 8 g ai/ha, preemergence): 0
Plant response rating, Sowthistle (common sowthistle; 16 g ai/ha, preemergence): 0
Sowthistle plant response rating (common sowthistle; 62 g ai/ha, Preemergence): 100
Plant response rating, Sowthistle (common sowthistle; Preemergence, 31 g ai/ha): 65
Plant response rating, Canarygrass (littleseed canarygrass; 31 g ai/ha): 0
Plant response rating, Canarygrass (littleseed canarygrass; 62 g ai/ha): 40
Plant response rating, Canarygrass (littleseed canarygrass; 125 g ai/ha): 100
Plant response rating, Canarygrass (littleseed canarygrass; 250 g ai/ha): 100
Plant response rating (0 to 100), Barley (winter barley [1]; 31 g ai/ha): 0
Plant response rating, Barley (winter barley [1]; 62 g ai/ha): 0
Plant response rating, Barley (winter barley [1]; 125 g ai/ha): 0
Plant response rating, Barley (winter barley [1]; 250 g ai/ha): 0
Plant response rating, Sandbur (field sandbur; 31 g ai/ha): 0
Plant response rating, Sandbur (field sandbur; 62 g ai/ha): 35
Plant response rating, Sandbur (field sandbur; 125 g ai/ha): 95
Plant response rating, Sandbur (field sandbur; 250 g ai/ha): 95
Plant response rating (0 to 100), Canarygrass (canarygrass; 31 g ai/ha): 0
Plant response rating, Canarygrass (canarygrass; 62 g ai/ha): 0
Plant response rating, Canarygrass (canarygrass; 125 g ai/ha): 0
Plant response rating, Canarygrass (canarygrass; 250 g ai/ha): 0
Plant response rating, Barley (winter barley [2]; [3]): 0
Plant response rating, Barley (winter barley [2]; [4]): 0
Plant response rating, Barley (winter barley [2]; [5]): 0
Plant response rating, Barley (winter barley [2]; [6]): 15

Cn1nc(C(F)(F)F)c(CS(=O)(=O)c2cccc[n+]2[O-])c1OC(F)F [Compound 4]
Plant response rating, Cotton (cotton; 31 g ai/ha): 5
Plant response rating, Cotton (cotton; 62 g ai/ha): 25
Plant response rating, Cotton (cotton; 125 g ai/ha): 0
Plant response rating, Cotton (cotton; 250 g ai/ha): 10
Plant response rating, Nutsedge, Yellow (yellow nutsedge; 31 g ai/ha): 0
Plant response rating, Nutsedge, Yellow (yellow nutsedge; 62 g ai/ha): 0
Plant response rating, Nutsedge, Yellow (yellow nutsedge; 125 g ai/ha): 15
Plant response rating, Nutsedge, Yellow (yellow nutsedge; 250 g ai/ha): 40
Plant response rating, Russian Thistle (Russian thistle; 8 g ai/ha, preemergence): 0
Russian Thistle plant response rating (Russian thistle; Preemergence): 100
Plant response rating, Russian Thistle (Russian thistle; Preemergence, 16 g ai/ha): 0
Plant response rating, Russian Thistle (Russian thistle; Preemergence, 31 g ai/ha): 100
Plant response rating, Foxtail, Millet (millet foxtail; 31 g ai/ha): 30
Plant response rating, Foxtail, Millet (millet foxtail; 62 g ai/ha): 40
Plant response rating, Foxtail, Millet (millet foxtail; 125 g ai/ha): 70
Plant response rating, Foxtail, Millet (millet foxtail; 250 g ai/ha): 100
Plant response rating, Canarygrass (littleseed canarygrass; 31 g ai/ha): 30
Plant response rating, Canarygrass (littleseed canarygrass; 62 g ai/ha): 100
Plant response rating, Canarygrass (littleseed canarygrass; 125 g ai/ha): 100
Plant response rating, Canarygrass (littleseed canarygrass; 250 g ai/ha): 100
Plant response rating, Sandbur (field sandbur; 31 g ai/ha): 0
Plant response rating, Sandbur (field sandbur; 62 g ai/ha): 30
Plant response rating, Sandbur (field sandbur; 125 g ai/ha): 60
Plant response rating, Sandbur (field sandbur; 250 g ai/ha): 100
Plant response rating, Barley (winter barley [2]; [3]): 30
Plant response rating, Barley (winter barley [2]; [4]): 30
Plant response rating, Barley (winter barley [2]; [5]): 30
Plant response rating, Barley (winter barley [2]; [6]): 35
